The supplement of paper PMC11061612

What was measured:
Assay in all cases: combination Emax (second highest fraction inhibited in the dose matrix, 72 h); higher = more inhibition; extreme values may be limits of the assay
[1] = tested on: COLO-680N (Esophageal Squamous Cell Carcinoma)
In short: (§1)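 Cell lines in DMEM/F12 or RPMI with 10% FBS were plated in 1536-well plates, held 24 hours at 37°C, 5% CO2, then given two-drug dose matrices for 72 hours (DMSO typically 0.2%). Viability was read by CellTiter-Glo 2.0 luminescence and scaled as inhibition from 0 (vehicle wells) to 1 (blank wells). Combination Emax is the second-highest inhibition in the matrix; Bliss excess is observed combination effect minus expected EA + EB − EA·EB, EA and EB being single-agent effects.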

[2] = tested on: RERF-LC-Sq1 (Squamous Cell Lung Carcinoma)
In short: as §1

[3] = tested on: 23132-87 (Gastric Carcinoma)
In short: as §1

[4] = tested on: LK-2 (Squamous Cell Lung Carcinoma)
In short: as §1

A2058 (Melanoma) = tested on: A2058 (Melanoma)
In short: as §1

GB-1 (Glioblastoma) = tested on: GB-1 (Glioblastoma)
In short: as §1

[5] = tested on: SK-PN-DW (Other Solid Carcinomas)
In short: as §1

WM793B (Melanoma) = tested on: WM793B (Melanoma)
In short: as §1

[6] = tested on: MKN45 (Gastric Carcinoma)
In short: as §1

[7] = tested on: GP5d (Colorectal Carcinoma)
In short: as §1

WM278 (Melanoma) = tested on: WM278 (Melanoma)
In short: as §1

[8] = tested on: HCT-15 (Colorectal Carcinoma)
In short: as §1

[9] = tested on: LB996-RCC (Kidney Carcinoma)
In short: as §1

IST-MES1 (Mesothelioma) = tested on: IST-MES1 (Mesothelioma)
In short: as §1

[10] = tested on: SHP-77 (Small Cell Lung Carcinoma)
In short: as §1

[11] = tested on: CAL-120 (Breast Carcinoma)
In short: as §1

[12] = tested on: NCI-H23 (Lung Adenocarcinoma)
In short: as §1

[13] = tested on: RERF-GC-1B (Gastric Carcinoma)
In short: as §1

[14] = tested on: OVMIU (Ovarian Carcinoma)
In short: as §1

[15] = tested on: PSN1 (Pancreatic Carcinoma)
In short: as §1

Row | Compound | combination Emax [1] | combination Emax [2] | combination Emax [3] | combination Emax [4] | combination Emax (A2058 (Melanoma)) | combination Emax (GB-1 (Glioblastoma)) | combination Emax [5] | combination Emax (WM793B (Melanoma)) | combination Emax [6] | combination Emax [7] | combination Emax (WM278 (Melanoma)) | combination Emax [8] | combination Emax [9] | combination Emax (IST-MES1 (Mesothelioma)) | combination Emax [10] | combination Emax [11] | combination Emax [12] | combination Emax [13] | combination Emax [14] | combination Emax [15]
1 | CCN(CCO)CCCOc1ccc2c(Nc3cc(CC(=O)Nc4cccc(F)c4)[nH]n3)ncnc2c1 [AZD2811] + C[C@@H]1COCCN1C2=NC(=NC(=C2)C3(CC3)[S@](=N)(=O)C)C4=C5C=CNC5=NC=C4 [AZD6738] (first compound max 1 µM, 7x7, partner max 10 µM) | 0.309 | 0.791 | 0.811 | 0.698 | 0.246 | 0.366 | 0.947 | 0.769 | 0.732 | 0.845 | 0.332 | 0.805 | 0.602 | 0.345 | 0.496 | 0.396 | 0.785 | 0.439 | 0.457 | 0.397
2 | CCN(CCO)CCCOc1ccc2c(Nc3cc(CC(=O)Nc4cccc(F)c4)[nH]n3)ncnc2c1 [AZD2811] + O=C(c1cc(Cc2n[nH]c(=O)c3ccccc23)ccc1F)N1CCN(C(=O)C2CC2)CC1 [Olaparib] (first compound max 1 µM, 7x7, partner max 10 µM) | 0.196 | 0.219 | 0.246 | 0.765 | 0.218 | 0.194 | 0.689 | 0.359 | 0.28 | 0.516 | 0.166 | 0.12 | 0.315 | 0.29 | 0.185 | 0.293 | 0.235 | 0.316 | 0.295 | 0.251
3 | CN(CCO)CC[C@H](CSc1ccccc1)Nc1ccc(S(=O)(=O)NC(=O)c2ccc(N3CCC([C@@H](O)c4ccccc4-c4ccc(Cl)cc4)CC3)cc2)cc1S(=O)(=O)C(F)(F)F [AZD4320] + C=CCn1c(=O)c2cnc(Nc3ccc(N4CCN(C)CC4)cc3)nc2n1-c1cccc(C(C)(C)O)n1 [AZD1775] (first compound max 1 µM, partner max 1 µM) | 0.223 | 0.683 | 0.846 | 0.992 | 0.355 | 0.223 | 0.898 | 0.622 | 0.826 | 0.782 | 0.765 | 0.456 | 0.978 | 0.461 | 0.65 | 0.854 | 0.832 | 0.962 | 0.976 | 0.592
4 | CN(CCO)CC[C@H](CSc1ccccc1)Nc1ccc(S(=O)(=O)NC(=O)c2ccc(N3CCC([C@@H](O)c4ccccc4-c4ccc(Cl)cc4)CC3)cc2)cc1S(=O)(=O)C(F)(F)F [AZD4320] + CCN(CCO)CCCOc1ccc2c(Nc3cc(CC(=O)Nc4cccc(F)c4)[nH]n3)ncnc2c1 [AZD2811] (first compound max 1 µM, 7x7, partner max 1 µM) | 0.137 | 0.275 | 0.258 | 0.967 | 0.47 | 0.117 | 0.719 | 0.246 | 0.316 | 0.566 | 0.635 | 0.135 | 0.485 | 0.213 | 0.65 | 0.829 | 0.216 | 0.568 | 0.802 | 0.349
5 | CN(CCO)CC[C@H](CSc1ccccc1)Nc1ccc(S(=O)(=O)NC(=O)c2ccc(N3CCC([C@@H](O)c4ccccc4-c4ccc(Cl)cc4)CC3)cc2)cc1S(=O)(=O)C(F)(F)F [AZD4320] + CN(C)CCCOc1ccc(-c2ccc3ncc4c(c3c2)n(C2CCOCC2)c(=O)n4C)cn1 [AZD0156] (first compound max 1 µM, 7x7, partner max 1 µM) | 0.137 | 0.194 | 0.148 | 0.712 | 0.103 | 0.0923 | 0.326 | 0.251 | 0.316 | 0.323 | 0.568 | 0.111 | 0.227 | 0.104 | 0.585 | 0.744 | 0.104 | 0.379 | 0.771 | 0.315
6 | CN(CCO)CC[C@H](CSc1ccccc1)Nc1ccc(S(=O)(=O)NC(=O)c2ccc(N3CCC([C@@H](O)c4ccccc4-c4ccc(Cl)cc4)CC3)cc2)cc1S(=O)(=O)C(F)(F)F [AZD4320] + C[C@@H]1COCCN1C2=NC(=NC(=C2)C3(CC3)[S@](=N)(=O)C)C4=C5C=CNC5=NC=C4 [AZD6738] (first compound max 1 µM, 7x7, partner max 10 µM) | 0.346 | 0.791 | 0.84 | 0.769 | 0.782 | 0.55 | 0.947 | 0.844 | 0.8 | 0.859 | 0.789 | 0.756 | 0.837 | 0.296 | 0.662 | 0.757 | 0.85 | 0.621 | 0.824 | 0.453
7 | CN(CCO)CC[C@H](CSc1ccccc1)Nc1ccc(S(=O)(=O)NC(=O)c2ccc(N3CCC([C@@H](O)c4ccccc4-c4ccc(Cl)cc4)CC3)cc2)cc1S(=O)(=O)C(F)(F)F [AZD4320] + C[C@@H](Nc1cc(F)cc(F)c1)c1cc(C(=O)N(C)C)cc2c(=O)cc(N3CCOCC3)oc12 [AZD8186] (first compound max 1 µM, 7x7, partner max 3 µM) | 0.243 | 0.274 | 0.74 | 0.794 | 0.765 | 0.548 | 0.757 | 0.531 | 0.345 | 0.644 | 0.85 | 0.187 | 0.654 | 0.325 | 0.53 | 0.735 | 0.335 | 0.549 | 0.534 | 0.487
8 | CN(CCO)CC[C@H](CSc1ccccc1)Nc1ccc(S(=O)(=O)NC(=O)c2ccc(N3CCC([C@@H](O)c4ccccc4-c4ccc(Cl)cc4)CC3)cc2)cc1S(=O)(=O)C(F)(F)F [AZD4320] + Cc1cc2ncnn2cc1Nc1ncc2c(n1)n(C1CCOCC1)c(=O)n2C [AZD7648] (first compound max 1 µM, 7x7, partner max 10 µM) | 0.0933 | 0.18 | 0.2 | 0.746 | 0.0867 | 0.17 | 0.413 | 0.221 | 0.352 | 0.295 | 0.555 | 0.135 | 0.321 | 0.113 | 0.491 | 0.748 | 0.156 | 0.344 | 0.847 | 0.315
9 | CN(CCO)CC[C@H](CSc1ccccc1)Nc1ccc(S(=O)(=O)NC(=O)c2ccc(N3CCC([C@@H](O)c4ccccc4-c4ccc(Cl)cc4)CC3)cc2)cc1S(=O)(=O)C(F)(F)F [AZD4320] + Cn1cnc2c(F)c(Nc3ccc(Br)cc3Cl)c(C(=O)NOCCO)cc21 [Selumetinib] (first compound max 1 µM, 7x7, partner max 3 µM) | 0.246 | 0.49 | 0.615 | 0.699 | 0.76 | 0.519 | 0.684 | 0.578 | 0.511 | 0.9 | 0.918 | 0.284 | 0.513 | 0.257 | 0.613 | 0.8 | 0.435 | 0.716 | 0.739 | 0.664
10 | COc1nnc2ccc(N3CCC(c4ccc(OCCN5CCN(C)C(=O)[C@H]5C)cc4)CC3)nn12 [AZD5153] + C=CCn1c(=O)c2cnc(Nc3ccc(N4CCN(C)CC4)cc3)nc2n1-c1cccc(C(C)(C)O)n1 [AZD1775] (first compound max 1 µM, partner max 1 µM) | 0.353 | 0.743 | 0.636 | 0.929 | 0.8 | 0.641 | 0.762 | 0.636 | 0.696 | 0.848 | 0.581 | 0.739 | 0.835 | 0.576 | 0.66 | 0.489 | 0.963 | 0.77 | 0.86 | 0.54
11 | COc1nnc2ccc(N3CCC(c4ccc(OCCN5CCN(C)C(=O)[C@H]5C)cc4)CC3)nn12 [AZD5153] + CC1(C)CCC(CN2CCN(c3ccc(C(=O)NS(=O)(=O)c4ccc(NCC5CCOCC5)c([N+](=O)[O-])c4)c(Oc4cnc5[nH]ccc5c4)c3)CC2)=C(c2ccc(Cl)cc2)C1 [Venetoclax] (first compound max 1 µM, 7x7, partner max 1 µM) | 0.344 | 0.52 | 0.141 | 0.396 | 0.432 | 0.256 | 0.482 | 0.523 | 0.566 | 0.682 | 0.447 | 0.724 | 0.473 | 0.591 | 0.405 | 0.336 | 0.651 | 0.702 | 0.666 | 0.334
12 | COc1nnc2ccc(N3CCC(c4ccc(OCCN5CCN(C)C(=O)[C@H]5C)cc4)CC3)nn12 [AZD5153] + CCN(CCO)CCCOc1ccc2c(Nc3cc(CC(=O)Nc4cccc(F)c4)[nH]n3)ncnc2c1 [AZD2811] (first compound max 1 µM, 7x7, partner max 1 µM) | 0.357 | 0.555 | 0.173 | 0.625 | 0.788 | 0.243 | 0.726 | 0.641 | 0.556 | 0.728 | 0.466 | 0.807 | 0.534 | 0.653 | 0.432 | 0.441 | 0.666 | 0.685 | 0.706 | 0.566
